Earlier results in patent US20060052448A1, “Use of methyl pyruvate or methyl pyruvic acid for the treatment of diseases of the nervous system and for protecting a human central nervous system against neuronal degeneration caused by defective intracellular energy production” (priority 2004, published 2006).
Like-named read-outs stand apart in the source and are kept apart here.

Columns and labels:
malate-aspartate shuttle [1] = tested on: malate-aspartate shuttle
malate-aspartate shuttle [2] = details: mGPDH-deficient islets, both shuttles halted
Na(+)-K(+)-ATPase = details: 10 microM
[3] = tested on: porcine carotid artery strips
[4] = tested on: isolated beta-cell mitochondria; details: in combination with glutamate
pancreatic beta-cells [5] = tested on: pancreatic beta-cells
[6] = tested on: Jurkat T-lymphocyte mitochondria
whole islets = details: 5 mM
[7] = tested on: isolated rat pancreatic islets
pancreatic beta-cells [8] = tested on: pancreatic beta-cells; remark: listed apart in the source
pancreatic beta-cells [9] = tested on: pancreatic beta-cells; remark: listed apart in the source
K(ATP) channels = biological target: T1, K(ATP) channels (Homo sapiens, UniProt Q09428+Q14654)
T1 construct: endogenous in cells

[10] = tested on: porcine carotid artery strips; details: 10 mM in PSS

T1 sequence (Q14654 whole entry): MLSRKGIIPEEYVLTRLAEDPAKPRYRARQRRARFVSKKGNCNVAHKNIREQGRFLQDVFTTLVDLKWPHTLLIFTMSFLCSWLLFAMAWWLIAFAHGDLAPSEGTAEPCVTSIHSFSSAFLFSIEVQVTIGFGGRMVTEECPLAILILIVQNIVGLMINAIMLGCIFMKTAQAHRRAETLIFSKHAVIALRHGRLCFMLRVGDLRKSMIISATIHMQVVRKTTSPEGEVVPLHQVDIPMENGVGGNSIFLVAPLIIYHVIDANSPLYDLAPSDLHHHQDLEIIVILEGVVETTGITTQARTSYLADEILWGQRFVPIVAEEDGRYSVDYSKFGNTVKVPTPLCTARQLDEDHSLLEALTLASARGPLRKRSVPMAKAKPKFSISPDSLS
T1 sequence (Q09428 whole entry): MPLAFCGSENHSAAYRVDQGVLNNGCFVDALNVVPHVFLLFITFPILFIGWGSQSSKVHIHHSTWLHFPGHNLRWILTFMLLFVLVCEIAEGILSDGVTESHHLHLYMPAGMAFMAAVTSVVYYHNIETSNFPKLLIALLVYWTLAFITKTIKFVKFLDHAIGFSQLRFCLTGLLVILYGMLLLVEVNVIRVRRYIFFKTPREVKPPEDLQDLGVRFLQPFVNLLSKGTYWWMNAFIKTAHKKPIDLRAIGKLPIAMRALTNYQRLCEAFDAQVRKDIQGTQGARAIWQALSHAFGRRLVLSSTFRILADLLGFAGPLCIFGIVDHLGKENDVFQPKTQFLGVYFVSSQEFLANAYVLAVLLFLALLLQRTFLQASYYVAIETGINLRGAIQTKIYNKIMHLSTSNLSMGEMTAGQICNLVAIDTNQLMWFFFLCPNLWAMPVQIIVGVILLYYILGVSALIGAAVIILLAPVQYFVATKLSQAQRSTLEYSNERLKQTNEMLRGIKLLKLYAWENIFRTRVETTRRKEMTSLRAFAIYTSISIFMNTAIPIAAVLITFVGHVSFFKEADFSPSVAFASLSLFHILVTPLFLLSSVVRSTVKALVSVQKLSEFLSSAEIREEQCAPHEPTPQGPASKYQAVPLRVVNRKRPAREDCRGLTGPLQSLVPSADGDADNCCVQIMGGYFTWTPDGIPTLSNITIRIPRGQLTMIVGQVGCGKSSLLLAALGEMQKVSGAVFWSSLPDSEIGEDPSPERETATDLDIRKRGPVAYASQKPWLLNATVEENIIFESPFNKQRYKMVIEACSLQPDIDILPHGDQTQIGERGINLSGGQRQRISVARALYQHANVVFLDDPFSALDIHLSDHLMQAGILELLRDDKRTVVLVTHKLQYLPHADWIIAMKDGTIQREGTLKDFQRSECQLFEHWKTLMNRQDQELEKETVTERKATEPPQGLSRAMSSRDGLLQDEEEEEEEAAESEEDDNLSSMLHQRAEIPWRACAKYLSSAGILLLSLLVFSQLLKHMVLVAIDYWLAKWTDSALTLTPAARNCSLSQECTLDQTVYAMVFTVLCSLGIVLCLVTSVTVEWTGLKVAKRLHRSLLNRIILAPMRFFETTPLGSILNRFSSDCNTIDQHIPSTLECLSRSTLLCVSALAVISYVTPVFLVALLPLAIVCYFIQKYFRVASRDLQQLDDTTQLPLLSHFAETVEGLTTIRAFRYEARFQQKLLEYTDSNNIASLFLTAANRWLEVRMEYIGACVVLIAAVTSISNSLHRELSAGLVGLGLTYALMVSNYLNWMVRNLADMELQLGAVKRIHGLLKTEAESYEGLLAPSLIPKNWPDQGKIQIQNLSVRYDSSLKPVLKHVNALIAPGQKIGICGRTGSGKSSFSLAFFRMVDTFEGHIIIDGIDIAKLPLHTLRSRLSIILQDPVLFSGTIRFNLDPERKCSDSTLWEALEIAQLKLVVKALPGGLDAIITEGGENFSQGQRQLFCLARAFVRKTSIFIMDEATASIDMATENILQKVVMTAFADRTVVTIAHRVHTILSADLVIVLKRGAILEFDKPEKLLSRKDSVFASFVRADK

## NOCC(=O)O [amino-oxyacetic acid]
malate-aspartate shuttle [1]
  negative shift in cytosolic NAD+/NADH redox potential: 26 mV
malate-aspartate shuttle [2]
  glucose-induced insulin secretion: almost completely abrogated

## C[C@@H]1O[C@@H](O[C@H]2C[C@@H](O)[C@]3(CO)[C@H]4[C@H](O)C[C@]5(C)[C@@H](C6=CC(=O)OC6)CC[C@]5(O)[C@@H]4CC[C@]3(O)C2)[C@H](O)[C@H](O)[C@H]1O [ouabain]
Na(+)-K(+)-ATPase
  glycolysis and lactate production: decreased glycolysis and lactate production

## [Cl-].[K+] [KCl]
[3]; 10 mM KCl, glucose-PSS
  change in resting tone: -0.8 ± 0.8 g
[3]; 10 mM KCl, lactate-PSS
  change in resting tone (increased contraction): 1.5 ± 0.7 g
[3]; 10 mM KCl, pyruvate-PSS
  change in resting tone: -2.1 ± 0.8 g
[3]; in glucose, read-out: EC50 of KCl concentration-response curve
  EC50: 32.1 ± 0.9 mM

## COC(=O)C(C)=O [methyl pyruvate]
[4]
  ATP production (accumulation of ATP in the medium): higher than that induced by pyruvate/glutamate
Pancreatic beta-cells [5]
  ATP production or ATP/ADP ratio: did not influence
  NAD(P)H autofluorescence: slightly decreased
  NADH and NADPH response (NAD(P)H imaging and LipDH autofluorescence): stimulated a robust NADH and NADPH response
Pancreatic beta-cells [5]; after an initial decrease
  cytosolic free Ca(2+) concentration: increased
[6]
  cation current across the inner mitochondrial membrane: directly inhibited
Whole islets
  effect on ATP/ADP ratio in whole islets: no effect
[7]; and/or high D-glucose (16.7 mM)
  high concentration of the methyl ester giving negative insulinotropic action: 20.0 mM
[7]; low D-glucose, 2.8 to 8.3 mM
  concentration of the ester at which positive insulinotropic action prevailed: ≤ 10.0 mM
Pancreatic beta-cells [8]; 5-20 mM
  depolarization of the beta-cell membrane potential: depolarized the beta-cell in a concentration-dependent manner
Pancreatic beta-cells [8]; in the presence of 0.5 mM glucose
  electrical activity: elicited electrical activity
Pancreatic beta-cells [9]
  increase in insulin secretion relative to that induced by glucose: 6 fold
Pancreatic beta-cells [9]; absence of glucose
  concentration of maximal effect on insulin secretion: 5 mM
K(ATP) channels
  K(ATP) current in standard whole-cell configuration: inhibited
  block of KATP: produced a block of KATP
  single-channel currents in inside-out patches: blocked

## CC(O)C(=O)O (stereo not drawn) [lactate]
[10]
  increase in O2 consumption: without effect
